Measured values reported in patent publication US7094413B2, “Combined therapy for treatment of HIV infection” (priority 2002, dated 2006).
“Also recorded” adds a separate entry of the source.

Experiments:
[1] = tested on: SIVmac251; assay: Plasma viral load (real time RT-PCR of SIV RNA) in SIV-infected rhesus macaques; format: in vivo, rhesus macaques (Macaca mulatta)
Excerpt: Fifteen (15) colony bred rhesus macaques (Macaca mulatta) from the California Regional Primate Research Center, Davis, were used in this study. Animals were housed in accordance with The American Association for Accredition of Laboratory Animal Care guidelines. All animals were seronegative for simian retrovirus (SRV-1) and simian T cell leukemia virus type-1 (STLV-1). Rhesus macaques were intravenously (I.V.) infected with 100 animal infectious doses of uncloned pathogenic SIVmac251. This viral inoculum has been previously shown to cause persistent viremia and infection Of multiple tissues in vivo, leading to fatal AIDS-like disease (Mandell et al 1995). The animals were divided into the following groups • 1. Untreated Controls, necropsy at week 10 (n=3) • 2. Untreated Controls, necropsy at week 26 (n=3) • 3 PMPA treatment, necropsy at week 10 (n=3) • 4. PMPA+RDP58 treatment, necropsy at week 10 (n=3) • 5. PMPA treatment, necropsy at week 26 (n=3) • 6. […]
Primers and probes specific to the SIV RNA sequence were designed and used in the real time PCR reaction. […] The progress of the reaction is monitored through the fluorescence released by […] that is proportional to the product being formed. Thus the fluorescence intensity is directly related to the amount of input target RNA. The data was analyzed with Sequence Detector Software (SDS). […]

[2] = tested on: T cells in gut associated lymphoid tissue (GALT) and blood; assay: Flow cytometry of T cells from jejunal biopsies (GALT) and peripheral blood of SIV-infected rhesus macaques; format: in vivo, rhesus macaques (Macaca mulatta)
Excerpt: Fifteen (15) colony bred rhesus macaques (Macaca mulatta) from the California Regional Primate Research Center, Davis, were used in this study. Animals were housed in accordance with The American Association for Accredition of Laboratory Animal Care guidelines. All animals were seronegative for simian retrovirus (SRV-1) and simian T cell leukemia virus type-1 (STLV-1). Rhesus macaques were intravenously (I.V.) infected with 100 animal infectious doses of uncloned pathogenic SIVmac251. This viral inoculum has been previously shown to cause persistent viremia and infection Of multiple tissues in vivo, leading to fatal AIDS-like disease (Mandell et al 1995). The animals were divided into the following groups • 1. Untreated Controls, necropsy at week 10 (n=3) • 2. Untreated Controls, necropsy at week 26 (n=3) • 3 PMPA treatment, necropsy at week 10 (n=3) • 4. PMPA+RDP58 treatment, necropsy at week 10 (n=3) • 5. PMPA treatment, necropsy at week 26 (n=3) • 6. PMPA+RDP58 treatment, necropsy at week 26 (n=3)
PMPA treatment was initiated at 6 weeks post-infection and was administered at 30 mg/kg, I.V. RDP58 was administered orally, dissolved in drinking water, at 2 mg/kg, 3×/week.
Jejunal biopsies and peripheral blood samples were obtained from all animals prior to infection and at 2 weeks, 6 weeks, 10 weeks, 16 weeks and 26 weeks post-infection and at necropsy. Jejunal biopsies was obtained using a pediatric gastroscope.
Jejunal pinch biopsy samples were incubated RPMI 1640 (Gibco) and collagenase (Sigma) at 37° C. and rapidly shaken for 45 minutes then subjected to Percoll (Sigma) density gradient centrifugation to enrich for T cells and eliminate tissue debris. Cells were then washed with PBS (Gibco) and allowed to equilibrate over night at 37° C. and 5% CO2 in complete RPMI 1640 (containing 10% fetal calf sera, penicillin and streptomyicin). Cells were stained for three-color flow cytometric analysis with CD3FITC, CD4PE, CD8PE, CD45RA (BD Pharmingen), CD8TC, CD69TC, CD28TC, CD25PE (Caltag). All cells were fixed in 1% paraformaldehyde in PBS and read on a Bectin Dickenson FacScan within 3 hours of staining. Flow data was analyzed using Bectin Dickenson CellQuest softwear.

Compound | plasma viral load (viral RNA copies/ml plasma) ([1]; therapy started at week 6 post infection, PMPA 30 mg/kg I.V.) | CD3 gated CD4+ T cells after SIV-induced depletion ([2]; GALT and blood, treatment from week 6) | % CD3 gated CD8+ cells ([2]; by week 10) | CD4+CD8+ double positive T cell counts in GALT ([2]; week 12, GALT) | effect of RDP58 on suppression of viral loads by antiretroviral therapy ([1]; RDP58 2 mg/kg orally 3x/week, alone or added to PMPA, 2 mg/kg) | stabilizing CD4+ T-cell population in GALT ([2]; GALT)
C[C@H](Cn1cnc2c(N)ncnc21)OCP(=O)(O)O [PMPA, 9-R-(2-phosphonomethoxypropyl)adenine] | gradual decrease in viral load | reversal | gradual decrease | modest changes | – | –
Arg-nL-nL-nL-Arg-nL-nL-nL-Gly-Tyr [RDP58] | – | – | – | – | no adverse effect; also recorded: did not interfere with or change the effect of antiretroviral therapy | beneficial effects
